Test results as given in ChEMBL document CHEMBL5137068, “Discovery of Hexahydrofuro[3,2-b]furans as New Kinase-Selective and Orally Bioavailable JAK3 Inhibitors for the Treatment of Leukemia Harboring a JAK3 Activating Mutant” (J Med Chem, 2022).
Active and inactive are the calls of the source. The calls are words filed in the database; no cut-off is given here.

Legend:
U-937 [1] = test: Induction of cell cycle arrest in human U-937 cells assessed as accumulation at S phase at 300 nM measured after 24 hrs by propidium iodide staining based flow cytometric analysis (reference value: 15.35%); type: functional
[2] = target: Receptor-type tyrosine-protein kinase FLT3 (Homo sapiens) (UniProt P36888); test: Inhibition of human FLT3 at 0.5 uM relative to control
U-937 [3] = test: Induction of cell cycle arrest in human U-937 cells assessed as accumulation at G0/G1 phase at 3.7 nM measured after 24 hrs by propidium iodide staining based flow cytometric analysis (reference value: 62.95%); type: functional
[4] = target: Receptor tyrosine-protein kinase erbB-2 (Homo sapiens) (UniProt P04626); test: Inhibition of HER2 (unknown origin) at 0.5 uM assessed as competition rate relative to control
[5] = target: Receptor tyrosine-protein kinase erbB-2 (Homo sapiens) (UniProt P04626); test: Inhibition of HER2 (unknown origin) at 0.5 uM relative to control
[6] = target: NUAK family SNF1-like kinase 1 (Homo sapiens, UniProt O60285); test: Inhibition of human ARK5
U-937 [7] = test: Induction of cell cycle arrest in human U-937 cells assessed as accumulation at G0/G1 phase at 33 nM measured after 24 hrs by propidium iodide staining based flow cytometric analysis (reference value: 62.95%); type: functional
[8] = target: Receptor-type tyrosine-protein kinase FLT3 (Homo sapiens) (UniProt P36888); test: Inhibition of human FLT3 at 0.5 uM assessed as competition rate relative to control
[9] = target: Tyrosine-protein kinase BTK (Homo sapiens) (UniProt Q06187); test: Inhibition of BTK (unknown origin) at 0.5 uM assessed as competition rate relative to control
[10] = target: Receptor tyrosine-protein kinase erbB-4 (Homo sapiens) (UniProt Q15303); test: Inhibition of HER4 (unknown origin) at 0.5 uM assessed as competition rate relative to control
U-937 [11] = test: Induction of cell cycle arrest in human U-937 cells assessed as downregulation of Cyclic D3 at 0 to 300 nM measured after 24 hrs by western blot analysis; type: functional, cell-based; conditions: dose 0-300 nM
U-937 [12] = test: Induction of cell cycle arrest in human U-937 cells assessed as downregulation of Cyclic E1 at 0 to 300 nM measured after 24 hrs by western blot analysis; type: functional, cell-based; conditions: dose 0-300 nM
[13] = Oral bioavailability in 12 hr fasted SPF Sprague-Dawley rat at 15 mg/kg upon 2 hrs fasting post-administration measured upto 24 hrs; type: ADME, organism-based; conditions: in vivo
[14] = target: T1, Signal transducer and activator of transcription 5A (Homo sapiens) (UniProt P42229); test: Inhibition of STAT5 activation in human U-937 cells assessed as decrease in P-STAT5 at 100 uM by Western blot analysis; type: cell-based; conditions: time 0-24 hrs, TDE = time-dependent effect
T1 sequence (whole entry): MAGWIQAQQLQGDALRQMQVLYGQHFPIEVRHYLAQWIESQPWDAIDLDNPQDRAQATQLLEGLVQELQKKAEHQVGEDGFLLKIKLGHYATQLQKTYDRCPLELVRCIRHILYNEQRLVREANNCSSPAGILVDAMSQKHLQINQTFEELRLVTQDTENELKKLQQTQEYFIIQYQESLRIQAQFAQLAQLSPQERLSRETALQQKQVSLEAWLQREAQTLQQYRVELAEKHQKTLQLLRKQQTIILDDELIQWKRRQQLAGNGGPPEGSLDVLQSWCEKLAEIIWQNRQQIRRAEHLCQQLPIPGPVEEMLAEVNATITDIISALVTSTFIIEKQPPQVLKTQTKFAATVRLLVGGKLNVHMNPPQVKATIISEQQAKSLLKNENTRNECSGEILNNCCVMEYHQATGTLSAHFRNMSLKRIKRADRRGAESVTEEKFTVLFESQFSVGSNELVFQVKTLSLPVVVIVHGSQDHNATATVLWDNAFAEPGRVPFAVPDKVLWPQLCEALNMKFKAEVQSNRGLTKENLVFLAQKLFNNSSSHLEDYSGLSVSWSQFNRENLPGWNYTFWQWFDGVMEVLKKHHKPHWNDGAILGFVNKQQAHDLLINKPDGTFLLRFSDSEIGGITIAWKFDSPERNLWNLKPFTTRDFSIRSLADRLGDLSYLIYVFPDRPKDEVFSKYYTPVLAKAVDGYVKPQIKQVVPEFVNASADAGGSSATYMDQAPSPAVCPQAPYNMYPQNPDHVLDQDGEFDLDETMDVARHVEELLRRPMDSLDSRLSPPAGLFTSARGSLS

U-937 [15] = test: cells; conditions: Homo sapiens, U-937, 72 h
[16] = target: Cyclin-Y/Cyclin-dependent kinase 16 (Homo sapiens, UniProt Q00536); test: Inhibition of human CDK16/cyclin-Y protein-protein complex; type: protein-complex assay
BaF3 = test: cells; conditions: Mus musculus, BaF3, 72 h

Receptor tyrosine-protein kinase erbB-2 (Homo sapiens), sequence (P04626 whole entry): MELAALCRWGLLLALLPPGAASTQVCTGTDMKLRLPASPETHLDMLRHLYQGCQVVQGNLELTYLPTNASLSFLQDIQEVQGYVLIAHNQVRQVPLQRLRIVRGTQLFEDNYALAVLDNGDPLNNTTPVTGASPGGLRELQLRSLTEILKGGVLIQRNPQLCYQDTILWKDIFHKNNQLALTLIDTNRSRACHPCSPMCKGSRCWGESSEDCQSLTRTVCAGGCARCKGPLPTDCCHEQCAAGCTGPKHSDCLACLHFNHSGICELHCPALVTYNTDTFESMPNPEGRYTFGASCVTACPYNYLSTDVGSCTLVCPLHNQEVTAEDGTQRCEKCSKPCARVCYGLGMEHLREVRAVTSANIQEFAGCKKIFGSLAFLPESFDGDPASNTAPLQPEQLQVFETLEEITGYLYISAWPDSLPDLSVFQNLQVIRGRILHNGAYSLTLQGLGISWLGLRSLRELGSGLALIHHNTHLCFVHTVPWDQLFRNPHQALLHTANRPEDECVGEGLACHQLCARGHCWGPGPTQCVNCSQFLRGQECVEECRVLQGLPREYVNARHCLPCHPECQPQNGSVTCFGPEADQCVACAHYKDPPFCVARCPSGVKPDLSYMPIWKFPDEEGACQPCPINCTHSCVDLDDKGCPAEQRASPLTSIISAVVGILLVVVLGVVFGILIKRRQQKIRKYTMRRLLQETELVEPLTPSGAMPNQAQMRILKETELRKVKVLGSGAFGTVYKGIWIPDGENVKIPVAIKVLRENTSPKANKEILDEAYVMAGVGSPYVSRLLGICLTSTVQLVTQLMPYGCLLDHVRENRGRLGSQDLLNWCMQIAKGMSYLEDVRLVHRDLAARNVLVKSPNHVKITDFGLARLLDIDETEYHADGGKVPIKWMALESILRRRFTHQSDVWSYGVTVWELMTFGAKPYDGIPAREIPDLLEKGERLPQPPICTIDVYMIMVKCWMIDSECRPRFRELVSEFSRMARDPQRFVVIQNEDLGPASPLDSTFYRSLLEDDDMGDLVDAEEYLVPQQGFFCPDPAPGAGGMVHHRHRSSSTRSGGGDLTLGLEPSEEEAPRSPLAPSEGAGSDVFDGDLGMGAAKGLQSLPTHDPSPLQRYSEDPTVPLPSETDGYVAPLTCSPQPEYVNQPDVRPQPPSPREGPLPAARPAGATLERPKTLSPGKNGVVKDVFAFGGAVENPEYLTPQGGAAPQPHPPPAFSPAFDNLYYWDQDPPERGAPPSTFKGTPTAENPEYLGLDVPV
Receptor-type tyrosine-protein kinase FLT3 (Homo sapiens), sequence (P36888 whole entry): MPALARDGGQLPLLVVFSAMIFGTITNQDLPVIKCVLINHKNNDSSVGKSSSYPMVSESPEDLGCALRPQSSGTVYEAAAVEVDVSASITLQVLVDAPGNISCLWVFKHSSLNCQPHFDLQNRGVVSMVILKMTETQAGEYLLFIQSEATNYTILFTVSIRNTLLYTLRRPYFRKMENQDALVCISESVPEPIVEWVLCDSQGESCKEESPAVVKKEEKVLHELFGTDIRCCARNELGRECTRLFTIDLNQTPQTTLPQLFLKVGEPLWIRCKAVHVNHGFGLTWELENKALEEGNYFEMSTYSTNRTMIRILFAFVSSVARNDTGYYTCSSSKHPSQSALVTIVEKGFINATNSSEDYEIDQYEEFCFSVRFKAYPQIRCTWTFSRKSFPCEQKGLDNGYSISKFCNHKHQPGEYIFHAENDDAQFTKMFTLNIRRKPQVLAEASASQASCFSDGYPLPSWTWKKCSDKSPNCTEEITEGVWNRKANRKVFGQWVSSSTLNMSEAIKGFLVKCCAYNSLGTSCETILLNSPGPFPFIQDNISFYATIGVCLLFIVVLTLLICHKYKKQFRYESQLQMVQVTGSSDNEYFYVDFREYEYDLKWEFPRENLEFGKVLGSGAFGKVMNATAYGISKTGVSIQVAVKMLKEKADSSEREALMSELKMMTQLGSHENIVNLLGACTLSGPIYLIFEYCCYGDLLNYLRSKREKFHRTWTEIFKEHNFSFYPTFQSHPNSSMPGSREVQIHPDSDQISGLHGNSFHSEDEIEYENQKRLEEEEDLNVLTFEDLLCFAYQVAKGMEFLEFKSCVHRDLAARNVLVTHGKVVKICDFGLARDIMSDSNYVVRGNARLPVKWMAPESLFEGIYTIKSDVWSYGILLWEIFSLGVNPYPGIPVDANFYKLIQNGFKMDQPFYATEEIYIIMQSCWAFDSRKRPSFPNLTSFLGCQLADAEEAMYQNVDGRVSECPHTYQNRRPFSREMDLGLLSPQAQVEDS
NUAK family SNF1-like kinase 1, sequence (O60285 whole entry): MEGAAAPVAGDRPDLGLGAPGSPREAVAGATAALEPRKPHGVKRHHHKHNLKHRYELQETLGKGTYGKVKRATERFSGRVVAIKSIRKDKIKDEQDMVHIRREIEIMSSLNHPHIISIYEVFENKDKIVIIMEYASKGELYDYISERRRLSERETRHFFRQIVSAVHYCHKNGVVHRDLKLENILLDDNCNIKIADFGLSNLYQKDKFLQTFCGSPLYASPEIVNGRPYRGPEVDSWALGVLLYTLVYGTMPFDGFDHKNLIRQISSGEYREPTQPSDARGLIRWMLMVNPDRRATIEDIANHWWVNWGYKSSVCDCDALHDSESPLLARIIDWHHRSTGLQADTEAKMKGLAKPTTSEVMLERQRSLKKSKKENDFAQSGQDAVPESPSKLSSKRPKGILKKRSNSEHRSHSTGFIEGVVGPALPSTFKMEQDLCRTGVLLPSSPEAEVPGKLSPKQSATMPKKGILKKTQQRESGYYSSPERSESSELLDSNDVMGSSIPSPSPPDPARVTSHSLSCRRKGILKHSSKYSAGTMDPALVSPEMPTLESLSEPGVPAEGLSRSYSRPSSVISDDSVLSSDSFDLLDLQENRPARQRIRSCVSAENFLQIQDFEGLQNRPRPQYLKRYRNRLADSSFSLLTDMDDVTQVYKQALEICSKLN
Tyrosine-protein kinase BTK (Homo sapiens), sequence (Q06187 whole entry): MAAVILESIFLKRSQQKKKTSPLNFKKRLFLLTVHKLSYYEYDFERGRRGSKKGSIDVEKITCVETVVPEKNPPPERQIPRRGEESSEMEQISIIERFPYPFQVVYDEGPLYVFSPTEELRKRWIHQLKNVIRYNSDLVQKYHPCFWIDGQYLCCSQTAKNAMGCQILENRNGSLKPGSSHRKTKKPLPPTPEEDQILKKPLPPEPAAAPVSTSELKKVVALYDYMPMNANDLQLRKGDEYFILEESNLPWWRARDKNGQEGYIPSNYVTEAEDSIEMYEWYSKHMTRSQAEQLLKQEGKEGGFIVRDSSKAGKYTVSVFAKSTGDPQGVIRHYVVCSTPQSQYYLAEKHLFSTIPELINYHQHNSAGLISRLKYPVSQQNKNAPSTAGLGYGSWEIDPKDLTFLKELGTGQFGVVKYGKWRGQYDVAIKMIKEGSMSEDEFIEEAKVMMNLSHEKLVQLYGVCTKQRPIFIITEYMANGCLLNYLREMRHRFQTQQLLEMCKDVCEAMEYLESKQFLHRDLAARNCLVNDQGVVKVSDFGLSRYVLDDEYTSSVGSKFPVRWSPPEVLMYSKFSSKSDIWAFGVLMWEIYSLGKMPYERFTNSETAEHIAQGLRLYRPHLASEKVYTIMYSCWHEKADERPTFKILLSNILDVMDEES
Cyclin-Y/Cyclin-dependent kinase 16, sequence (Q00536 whole entry): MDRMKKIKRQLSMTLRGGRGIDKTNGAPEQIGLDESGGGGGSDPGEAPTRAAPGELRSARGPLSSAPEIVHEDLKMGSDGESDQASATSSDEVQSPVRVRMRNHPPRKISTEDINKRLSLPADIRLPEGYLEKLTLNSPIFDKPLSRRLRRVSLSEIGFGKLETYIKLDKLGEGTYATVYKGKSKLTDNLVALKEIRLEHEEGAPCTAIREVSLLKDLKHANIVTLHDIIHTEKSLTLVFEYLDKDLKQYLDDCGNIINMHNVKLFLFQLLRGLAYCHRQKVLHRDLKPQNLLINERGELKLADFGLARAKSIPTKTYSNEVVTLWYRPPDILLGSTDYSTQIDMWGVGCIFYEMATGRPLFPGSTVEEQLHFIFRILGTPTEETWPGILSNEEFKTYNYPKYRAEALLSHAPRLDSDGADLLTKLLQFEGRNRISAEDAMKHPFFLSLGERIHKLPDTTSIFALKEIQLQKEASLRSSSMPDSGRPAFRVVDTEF
Cyclin-Y/Cyclin-dependent kinase 16, sequence (Q8ND76 whole entry, further chain): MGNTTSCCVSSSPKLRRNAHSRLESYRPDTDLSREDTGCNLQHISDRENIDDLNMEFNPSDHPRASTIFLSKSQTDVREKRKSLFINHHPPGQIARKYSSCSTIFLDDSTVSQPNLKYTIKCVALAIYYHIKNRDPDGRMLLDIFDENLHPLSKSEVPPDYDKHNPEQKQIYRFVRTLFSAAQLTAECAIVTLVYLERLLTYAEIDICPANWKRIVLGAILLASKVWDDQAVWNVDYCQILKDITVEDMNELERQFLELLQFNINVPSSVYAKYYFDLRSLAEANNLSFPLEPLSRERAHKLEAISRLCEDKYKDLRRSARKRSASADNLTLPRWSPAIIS

Molecule C=CC(=O)Nc1cc(Nc2ncc(Cl)c(O[C@@H]3CO[C@H]4[C@@H]3OC[C@H]4OC)n2)ccc1N(C)CCN(C)C has an Activity (U-937 [1]) of 7.5%, an inhibition [2] of 23% and an Activity (U-937 [3]) of 61.57%. For the same molecule, the inhibition [4] was 40%, the inhibition [5] was 115% and the IC50 [6] was 25 nM. The Activity (U-937 [7]) was 64.92%, the inhibition [8] was 70% and the inhibition [9] was 40%. The inhibition [10] was 40%, the Activity (U-937 [11]) was “Active” and the Activity (U-937 [12]) was “Active”. For the same molecule, the bioavailability [13] was 20.7%, the inhibition [14] was “Tde” and the IC50 (U-937 [15]) was 20.2 nM. For the same molecule, the IC50 [16] was 135 nM and the IC50 (BaF3) was 22.9 nM.
